Experimental data reported in US10329542B2, “HBV RNAse H purification and enzyme inhibitors” (Saint Louis University, priority 2012, dated 2019).
Entries after “also recorded” stand apart in the source; their conditions may differ.

Key:
HBV genotype A = assay: HBV replication inhibition in Huh7 cells, Southern blot, genotype A; type: cell-based, Hepatitis B virus; details: for Inhibition of HBV replication, RNA:DNA heteroduplex signature: 10 μM, Huh7 cells, Southern blot
Experimental: Huh7 cells were maintained in Dulbecco's modified Eagle's medium with 10% fetal bovine serum at 37° C. in 5% CO2. Cells were seeded into 60 mm dishes and transfected at 70% confluency with 2.6 μg of plasmids using TransIT-LT1 (Mirus, Inc.). Test compounds were added the morning following transfection at 10 or 50 μM, and fresh medium containing the compounds was provided every 1-2 days. Four or five days post-transfection HBV cores were isolated by lysis of the cells in 10 mM Tris pH 7.5, 1 mM EDTA, 0.25% NP40, 50 mM NaCl, and 8% sucrose followed by sedimentation through a 30% sucrose cushion as described (Travis, et al., 1998). Viral DNAs were isolated from cytoplasmic core particle preparations by proteinase K digestion followed by phenol/chloroform extraction as described (Gong et al., 2001). Duplicate aliquots of the nucleic acids were treated with 2 U E. coli DNAse-free RNAseH (Invitrogen) at 37° C. for 30 min. or were mock treated. The nucleic acid samples were resolved by electrophoresis on 1.2% agarose gels and detected by Southern blotting with ^32P-labeled HBV DNA as a probe.
Finally, the inventors asked whether HBV RNAseH inhibitors could block HBV replication in culture. Huh7 cells were transfected with genomic expression vectors for HBV genotype A or D isolates, the cells were treated with 10 or 50 μM compounds, and viral nucleic acids were isolated from intracellular HBV capsids after four days. Replicate nucleic acid aliquots were mock treated or treated with DNAse-free E. coli RNAseH to destroy RNA:DNA heteroduplexes, and then HBV DNAs were detected by Southern blotting. The signature of RNAseH inhibition is accumulation of RNA:DNA heteroduplexes that migrate as double-stranded species without exogenous RNAseH treatment but as faster-migrating single-stranded DNAs following RNAseH treatment.
Inhibition of HBV replication by βTJ was measured as recently described (Tavis et al., 2013). Briefly, Huh7 cells were transfected with HBV genomic expression vectors using TransIT-LT1 (Mirus, Inc.), βTJ was added 12-16 hrs post-transfection at the indicated concentrations, and fresh medium containing the compounds was provided two days later. HBV core particles were isolated four days post-transfection by detergent lysis of the cells and sedimentation through a sucrose cushion as described (Tavis et al., 1998). Viral DNAs were isolated from cytoplasmic core particle preparations by proteinase K digestion followed by phenol/chloroform extraction as described (Gong et al., 2001). Duplicate aliquots of each nucleic acid preparation were treated with 2 U E. coli DNAse-free RNAseH (Invitrogen) at 37° C. for 30 min. or were mock treated. The nucleic acids were resolved by electrophoresis on 1.2% agarose gels and HBV DNAs were detected by Southern blotting with ^32P-labeled double-stranded HBV DNA as a probe to detect both the plus- and minus-polarity HBV DNA strands. HBV core protein (HBc) and β-actin in the cytoplasmic lysates were monitored by western analysis using an anti-HBc antibody (HBP-023-9, Austral Biologicals) and a mouse […] monoclonal antibody from ZSGB-BIO Co., Ltd., respectively. HBV surface antigen (HBs) proteins were quantified by ELISA (Shanghai Kehua Biotech).

[1] = target: T1, chimeric HBV:HIV RNAseH HHC1 (Hepatitis B virus genotype D subtype ayw, UniProt P03156, DELINS787-795VNQIIEQLIVK/INS679M); assay: Oligonucleotide-directed RNAseH cleavage assay, chimeric HHC1; type: biochemical; details: read-out: Residual activity at 10 uM, HHC1
T1 construct: HHC1 is an HRHPL derivative; made in house; host or cells: E. coli BL21 codon+
Outline: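 Bacterially expressed C-terminal His-tagged HHC1 (HRHPL, HBV genotype D pol 684-845, with residues 800-808 swapped for HIV RNAseH helix D) extract mixed with internally 32P-labeled DRF+ RNA and oligonucleotide D2507- (D2526+ negative control), 42 °C, 90 min. Products resolved by 12% SDS-PAGE, autoradiographed and quantified; compounds added in DMSO, DMSO vehicle control.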

Huh7 cells = assay: MTS cytotoxicity assay in Huh7 cells; type: cell-based, human
Experimental: Toxicity of βTJ in Huh7 cells was determined with 3-(4,5-dimethylthiazol-2-yl)-5-β-carboxymethoxyphenyl)-2-(4-sulfophenyl)-2H-tetrazolium (MTS) assays that measures mitochondrial dysfunction employing the Cell Titre 96 aqueous nonradioactive cell proliferation assay (Promega), and with the CytoTox-Glo assay (Promega) that reflects cellular integrity. Huh7 and HepG2 cells (1×10^4) were plated in 96-well tissue culture plates, medium containing βTJ at the indicated concentrations was added the next day, the medium was replaced with fresh medium containing βTJ after two days, and after four days the MTS or CytoTox-Glo assays were conducted according to the manufacturer's instructions.

T1 sequence (P03156 680-786, added parts left off, stated change not applied): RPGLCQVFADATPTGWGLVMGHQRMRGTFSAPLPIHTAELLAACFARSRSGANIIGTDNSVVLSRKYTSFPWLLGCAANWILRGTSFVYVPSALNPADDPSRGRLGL

COc1ccc2ccccc2c1C=NNC(=O)c1cc(O)c(O)c(O)c1 [Compound 14]
Inhibition of HBV replication (HBV genotype A; 25 μM): inhibited HBV replication in one experiment

COc1cc2c(cc1Cc1cccc(Cl)c1F)c(=O)c(C(=O)O)cn2[C@H](CO)C(C)C [Compound 10, Elvitegravir, reference compound]
remaining activity at 10 µM [1]: 35 ± 7%

Cc1nnc(C(=O)NC(C)(C)c2nc(C(=O)NCc3ccc(F)cc3)c(O)c(=O)n2C)o1 [Compound 11, Raltegravir, reference compound]
remaining activity at 10 µM [1]: 59 ± 23%

CC(C)c1ccc(O)c(=O)c(O)c1 [Compound 46, beta-thujaplicinol]
Inhibition of HBV replication, RNA:DNA heteroduplex signature (HBV genotype A): inhibited HBV replication in cell culture; also recorded: inhibited production of the slowest-migrating (mature) viral DNA | Accumulation of RC DNA and RNA:DNA heteroduplexes (HBV genotype A; 2.5, 10, 15, and 20 μM, four days): suppressed accumulation of the RC DNA | Total amount of viral DNA detected (HBV genotype A; 15 and 20 μM): suppressed | CC50 (Huh7 cells; four days): 10.1 ± 1.7 µM

NCc1ccc(-c2ccc(Cc3cc(=O)n(O)c4ncccc34)cc2)cc1 [Compound 12, napthyridinone]
Inhibition of HBV replication, RNA:DNA heteroduplex signature (HBV genotype A): blocked production of the slowest-migrating double-stranded forms; also recorded: inhibited HBV replication in cell culture; also recorded: inhibited production of the slowest-migrating (mature) viral DNA | Estimated CC50, MTS assay, Huh7 cells (Huh7 cells): low μM range

[N-]=[N+]=NCc1cccc(C(=O)CC(=O)C(=O)O)c1 [Compound 40]
Inhibition of HBV replication (HBV genotype A; 50 μM): inhibited replication in another experiment

Cc1c2cc(O)c(=O)cc-2oc2cc(O)c(O)cc12 [Compound 8]
Inhibition of HBV replication, RNA:DNA heteroduplex signature (HBV genotype A): did not affect HBV replication
